Results published in ChEMBL document CHEMBL2203270, “POMA analyses as new efficient bioinformatics' platform to predict and optimise bioactivity of synthesized 3a,4-dihydro-3H-indeno[1,2-c]pyrazole-2-carboxamide/carbothioamide analogues” (Bioorg Med Chem Lett, 2012).
Values after ≈ are worked out from the molar mass of the structure shown.

Assays:
[1] = system: Human immunodeficiency virus 1; test: Antiviral activity against HIV-1 3B infected in MT4 cells assessed as inhibition of virus-induced cytopathicity; assay type: functional, organism-based; conditions: Human immunodeficiency virus 1, 3B
Bacillus subtilis = test: Antimicrobial activity against Bacillus subtilis NCIM 2439 by broth dilution technique; assay type: functional
Aspergillus niger = test: Antimicrobial activity against Aspergillus niger NCIM 1196 by broth dilution technique; assay type: functional
Staphylococcus aureus = test: Antimicrobial activity against Staphylococcus aureus NCIM 2079 by broth dilution technique; assay type: functional
[2] = Cytotoxicity against mock-infected human MT4 cells assessed as decrease in cell viability by MTT assay; assay type: cell-based
[3] = system: Human immunodeficiency virus 1; test: Antiviral activity against HIV-1 3B infected in MT4 cells assessed as protection against virus-induced cytopathicity relative to control; assay type: functional; conditions: Human immunodeficiency virus 1, 3B
Candida albicans = test: Antimicrobial activity against Candida albicans NCIM 3471 by broth dilution technique; assay type: functional
Escherichia coli = test: Antimicrobial activity against Escherichia coli NCIM 5051 by broth dilution technique; assay type: functional
Pseudomonas aeruginosa = test: Antimicrobial activity against Pseudomonas aeruginosa ATCC 10145 by broth dilution technique; assay type: functional
[4] = system: Human immunodeficiency virus 2; test: Antiviral activity against HIV-2 ROD infected in MT4 cells assessed as protection against virus-induced cytopathicity relative to control; assay type: functional; conditions: Human immunodeficiency virus 2, ISOLATE ROD
[5] = system: Human immunodeficiency virus 2; test: Antiviral activity against HIV-2 ROD infected in MT4 cells assessed as inhibition of virus-induced cytopathicity; assay type: functional, organism-based; conditions: Human immunodeficiency virus 2, ISOLATE ROD

Compound | IC50 [1] [µM] | MIC (Bacillus subtilis) [mg/L] | MIC (Aspergillus niger) [mg/L] | MIC (Staphylococcus aureus) [mg/L] | MIC (Candida albicans) [mg/L] | MIC (Escherichia coli) [mg/L] | MIC (Pseudomonas aeruginosa) [mg/L] | IC50 [5] [µM] | MBC (Bacillus subtilis) [mg/L] | MFC (Aspergillus niger) [mg/L] | MBC (Staphylococcus aureus) [mg/L] | CC50 [2] [µM] | Emax [3] [%] | MFC (Candida albicans) [mg/L] | MBC (Escherichia coli) [mg/L] | MBC (Pseudomonas aeruginosa) [mg/L] | Emax [4] [%]
COc1cc2c(cc1OC)C1=NN(C(N)=S)C(c3ccncc3)C1C2 (configuration not stated) | > 36.9 | 32 (≈ 90.3 µM) | 128 (≈ 361 µM) | 32 (≈ 90.3 µM) | 128 (≈ 361 µM) | 32 (≈ 90.3 µM) | 32 (≈ 90.3 µM) | > 36.9 | > 512 | > 512 | > 512 | 36.9 | 2 | > 512 | > 512 | > 512 | 3
COc1cc2c(cc1OC)C1=NN(C(=O)Nc3ccc(C)cc3C)C(c3ccc(F)cc3)C1C2 (configuration not stated) | > 198 | – | – | – | – | – | – | > 198 | – | – | – | 198 | 4 | – | – | – | 12
COc1cc2c(cc1OC)C1=NN(C(N)=S)C(c3ccccc3Cl)C1C2 (configuration not stated) | > 6.87 | 16 (≈ 41.2 µM) | 128 (≈ 330 µM) | 16 (≈ 41.2 µM) | 64 (≈ 165 µM) | 8 (≈ 20.6 µM) | 16 (≈ 41.2 µM) | > 6.87 | 128 (≈ 330 µM) | > 512 | 128 (≈ 330 µM) | 6.87 | 0 | > 512 | 128 (≈ 330 µM) | 256 (≈ 660 µM) | 1
COc1ccc(C2C3Cc4cc(OC)c(OC)cc4C3=NN2C(=O)Nc2ccc(F)cc2)cc1 (configuration not stated) | > 132 | – | – | – | – | – | – | > 132 | – | – | – | 132 | 7 | – | – | – | 9
COc1cc2c(cc1OC)C1=NN(C(N)=S)C(c3ccccc3)C1C2 (configuration not stated) | > 28.4 | 256 (≈ 724 µM) | 128 (≈ 362 µM) | 256 (≈ 724 µM) | 128 (≈ 362 µM) | 128 (≈ 362 µM) | 256 (≈ 724 µM) | > 28.4 | > 512 | > 512 | > 512 | 28.4 | 2 | > 512 | > 512 | > 512 | 12
COc1cc2c(cc1OC)C1=NN(C(N)=O)C(c3ccccc3)C1C2 (configuration not stated) | > 259 | 256 (≈ 759 µM) | 256 (≈ 759 µM) | 256 (≈ 759 µM) | 128 (≈ 379 µM) | 256 (≈ 759 µM) | 256 (≈ 759 µM) | > 259 | > 512 | > 512 | > 512 | 259 | 2 | > 512 | > 512 | > 512 | 11
COc1cc2c(cc1OC)C1=NN(C(=O)Nc3c(C)cccc3C)C(c3ccc(F)cc3)C1C2 (configuration not stated) | > 9.36 | – | – | – | – | – | – | > 9.36 | – | – | – | 9.36 | 3 | – | – | – | 4
Cc1cn([C@H]2C[C@H](N=[N+]=[N-])[C@@H](CO)O2)c(=O)[nH]c1=O [ZIDOVUDINE] | – | – | – | – | – | – | – | – | – | – | – | > 93.5 | 90 | – | – | – | 66
COc1cc2c(cc1OC)C1=NN(C(=O)Nc3ccc(C)cc3C)C(c3ccccc3)C1C2 (configuration not stated) | > 33.4 | – | – | – | – | – | – | > 33.4 | – | – | – | 33.4 | 5 | – | – | – | 7
COc1ccc(C2C3Cc4cc(OC)c(OC)cc4C3=NN2C(N)=O)cc1 (configuration not stated) | > 150 | 128 (≈ 348 µM) | 4 (≈ 10.9 µM) | 64 (≈ 174 µM) | 2 (≈ 5.44 µM) | 32 (≈ 87.1 µM) | 64 (≈ 174 µM) | > 150 | > 512 | 8 (≈ 21.8 µM) | > 512 | 150 | 3 | 2 (≈ 5.44 µM) | > 512 | > 512 | 6
COc1cc2c(cc1OC)C1=NN(C(N)=O)C(c3ccncc3)C1C2 (configuration not stated) | > 40.4 | 16 (≈ 47.3 µM) | 256 (≈ 757 µM) | 16 (≈ 47.3 µM) | 256 (≈ 757 µM) | 8 (≈ 23.6 µM) | 16 (≈ 47.3 µM) | > 40.4 | > 512 | > 512 | > 512 | 40.4 | 4 | > 512 | > 512 | > 512 | 5

Now from value to molecule, other results behind:

IC50 [1] [µM] | MIC (Bacillus subtilis) [mg/L] | MIC (Aspergillus niger) [mg/L] | MIC (Staphylococcus aureus) [mg/L] | MIC (Candida albicans) [mg/L] | MIC (Escherichia coli) [mg/L] | MIC (Pseudomonas aeruginosa) [mg/L] | IC50 [5] [µM] | Compound | MBC (Bacillus subtilis) [mg/L] | MFC (Aspergillus niger) [mg/L] | MBC (Staphylococcus aureus) [mg/L] | CC50 [2] [µM] | Emax [3] [%] | MFC (Candida albicans) [mg/L] | MBC (Escherichia coli) [mg/L] | MBC (Pseudomonas aeruginosa) [mg/L] | Emax [4] [%]
> 39.9 | 4 (≈ 10.8 µM) | 64 (≈ 172 µM) | 4 (≈ 10.8 µM) | 32 (≈ 86.2 µM) | 4 (≈ 10.8 µM) | 4 (≈ 10.8 µM) | > 39.9 | COc1cc2c(cc1OC)C1=NN(C(N)=S)C(c3ccc(F)cc3)C1C2 (configuration not stated) | 8 (≈ 21.5 µM) | > 512 | 8 (≈ 21.5 µM) | 39.9 | 5 | > 512 | 8 (≈ 21.5 µM) | 8 (≈ 21.5 µM) | 9
> 31.9 | – | – | – | – | – | – | > 31.9 | COc1cc2c(cc1OC)C1=NN(C(=O)Nc3ccc(F)cc3)C(c3ccncc3)C1C2 (configuration not stated) | – | – | – | 31.9 | 2 | – | – | – | 2
> 26.5 | – | – | – | – | – | – | > 26.5 | COc1cc2c(cc1OC)C1=NN(C(=O)Nc3ccc(Br)cc3)C(c3ccncc3)C1C2 (configuration not stated) | – | – | – | 26.5 | 1 | – | – | – | 1
> 108 | – | – | – | – | – | – | > 108 | COc1cc2c(cc1OC)C1=NN(C(=O)Nc3ccc(Br)cc3)C(c3ccc(F)cc3)C1C2 (configuration not stated) | – | – | – | 108 | 8 | – | – | – | 16
> 208 | – | – | – | – | – | – | > 208 | COc1ccc(C2C3Cc4cc(OC)c(OC)cc4C3=NN2C(=O)Nc2ccc(F)cc2)cc1OC (configuration not stated) | – | – | – | 208 | 11 | – | – | – | 37
> 9.09 | – | – | – | – | – | – | > 9.09 | COc1cc2c(cc1OC)C1=NN(C(=O)Nc3ccc(F)cc3)C(c3ccccc3Cl)C1C2 (configuration not stated) | – | – | – | 9.09 | 2 | – | – | – | 1
